Measurements published in US20030109418A1, “Methods for identifying compounds for inhibition of neoplastic lesions, and pharmaceutical compositions containing such compounds” (priority 1999, published 2003).
Where two headings read alike, the source gives them in different places.

What was measured:
[1] = biological target: T1, purified cyclooxygenase (Type 1, COX-I) from ram seminal vesicles (Ovis aries, UniProt P05979); test: COX inhibition assay, purified cyclooxygenase; type: biochemical; conditions: for COX Inhibition: qualitative activity profile; for inhibition at 100 µM: read-out: Cyclooxygenase inhibitory activity, % Inhibition at 100 μM
T1 construct: using purified cyclooxygenase from ram seminal vesicles as described previously; tissue Cayman Chemical, Ann Arbor, Mich; (named in the general protocol only); host or cells: ram seminal vesicles
T1 sequence (P05979 25-600): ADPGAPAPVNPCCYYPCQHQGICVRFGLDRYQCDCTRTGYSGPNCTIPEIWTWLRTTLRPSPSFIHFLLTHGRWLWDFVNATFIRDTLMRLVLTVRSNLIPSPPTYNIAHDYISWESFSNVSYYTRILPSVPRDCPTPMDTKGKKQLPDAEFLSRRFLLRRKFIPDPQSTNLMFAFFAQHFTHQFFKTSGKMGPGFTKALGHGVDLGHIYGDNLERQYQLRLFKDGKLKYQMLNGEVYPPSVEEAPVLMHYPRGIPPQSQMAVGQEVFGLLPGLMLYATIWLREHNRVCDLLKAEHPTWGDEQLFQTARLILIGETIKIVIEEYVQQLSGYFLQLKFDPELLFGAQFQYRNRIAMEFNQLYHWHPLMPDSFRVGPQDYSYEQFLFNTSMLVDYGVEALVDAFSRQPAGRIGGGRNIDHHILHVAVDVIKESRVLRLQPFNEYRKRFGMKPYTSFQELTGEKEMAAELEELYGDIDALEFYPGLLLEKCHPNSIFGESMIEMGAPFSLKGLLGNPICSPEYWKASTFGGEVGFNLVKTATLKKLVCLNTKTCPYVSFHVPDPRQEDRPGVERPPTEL

[2] = test system: cGMP PDE purified from human colon HT-29 cultured tumor cells; test: cGMP PDE inhibition assay; type: biochemical; conditions: for PDE Inhibition: qualitative activity profile; for IC50: read-out: IC50 for inhibition of cGMP PDE, HT-29 cell enzyme
[3] = test system: HT-29 colon adenocarcinoma cells; test: Apoptosis by DNA fragmentation assay in HT-29; type: cell-based, human; on Apoptosis: key: −: Not active; +: Slightly active; ++: Moderately active; +++: Strongly active; ++++: Highly active
[4] = test system: HT-29 human colon carcinoma cell line; test: Growth inhibition, SRB assay, HT-29; type: cell-based; set-up: Growth Inhibition: key to the marks not given beside the values
[5] = test system: premalignant lesions in mouse mammary gland organ culture; test: Mammary gland organ culture model; type: cell-based; conditions: qualitative activity profile; further: key: −: Not active; +: Slightly active; ++: Moderately active; +++: Strongly active; ++++: Highly active
Source text: Test compounds identified by the above methods can be tested for antineoplastic activity by their ability to inhibit the incidence of pre-neoplastic lesions in a mammary gland organ culture system. This mouse mammary gland organ culture technique has been successfully used by other investigators to study the effects of known antineoplastic agents such as certain NSAIDs, retinoids, tamoxifen, selenium, and certain natural products, and is useful for validation of the screening method of the present invention.
For example, female BALB/c mice can be treated with a combination of estradiol and progesterone daily, in order to prime the glands to be responsive to hormones in vitro. The animals are sacrificed, and thoracic mammary glands are excised aseptically and incubated for ten days in growth media supplemented with insulin, prolactin, hydrocortisone, and aldosterone. DMBA (7,12-dimethylbenz(a)anthracene) is added to medium to induce the formation of premalignant lesions. Fully developed glands are then deprived of prolactin, hydrocortisone, and aldosterone, resulting in the regression of the glands but not the pre-malignant lesions.
The test compound is dissolved in DMSO and added to the culture media for the duration of the culture period. At the end of the culture period, the glands are fixed in 10% formalin, stained with alum carmine, and mounted on glass slides. The incidence of forming mammary lesions is the ratio of the glands with mammary lesions to […]. The incidence of mammary lesions in test compound treated glands is compared with that of the untreated glands.
The extent of the area occupied by the mammary lesions can be quantitated by projecting an image of the gland onto a digitation pad. The area covered by the gland is traced on the pad and considered as 100% of the area. The space covered by each of the non-regressed structures is also outlined on the digitization pad and quantitated by the computer.
Mammary gland organ culture experiment were performed as previously described (Mehta and Moon, Cancer Research, 46: 5832-5835, 1986). […] The data support the hypothesis that cyclooxygenase inhibition is not necessary for the anti-neoplastic properties of desired compounds.

[6] = test system: SW-480 colon adenocarcinoma cells
[7] = biological target: T2, PDE peak A (PDE5) from SW480 cells (Homo sapiens, UniProt O76074); test: cGMP hydrolysis inhibition, PDE peak A from SW480; type: biochemical
T2 construct: endogenous in cells; host or cells: SW480 colon cancer cells, DEAE-Trisacryl M fraction

[8] = biological target: novel cGMP-specific PDE peak B from SW480 cells (Homo sapiens, UniProt O00408); test: cGMP hydrolysis inhibition, novel PDE peak B (Section IA) from SW480; type: biochemical
Chain of novel cGMP-specific PDE peak B from SW480 cells (O00408 2-941): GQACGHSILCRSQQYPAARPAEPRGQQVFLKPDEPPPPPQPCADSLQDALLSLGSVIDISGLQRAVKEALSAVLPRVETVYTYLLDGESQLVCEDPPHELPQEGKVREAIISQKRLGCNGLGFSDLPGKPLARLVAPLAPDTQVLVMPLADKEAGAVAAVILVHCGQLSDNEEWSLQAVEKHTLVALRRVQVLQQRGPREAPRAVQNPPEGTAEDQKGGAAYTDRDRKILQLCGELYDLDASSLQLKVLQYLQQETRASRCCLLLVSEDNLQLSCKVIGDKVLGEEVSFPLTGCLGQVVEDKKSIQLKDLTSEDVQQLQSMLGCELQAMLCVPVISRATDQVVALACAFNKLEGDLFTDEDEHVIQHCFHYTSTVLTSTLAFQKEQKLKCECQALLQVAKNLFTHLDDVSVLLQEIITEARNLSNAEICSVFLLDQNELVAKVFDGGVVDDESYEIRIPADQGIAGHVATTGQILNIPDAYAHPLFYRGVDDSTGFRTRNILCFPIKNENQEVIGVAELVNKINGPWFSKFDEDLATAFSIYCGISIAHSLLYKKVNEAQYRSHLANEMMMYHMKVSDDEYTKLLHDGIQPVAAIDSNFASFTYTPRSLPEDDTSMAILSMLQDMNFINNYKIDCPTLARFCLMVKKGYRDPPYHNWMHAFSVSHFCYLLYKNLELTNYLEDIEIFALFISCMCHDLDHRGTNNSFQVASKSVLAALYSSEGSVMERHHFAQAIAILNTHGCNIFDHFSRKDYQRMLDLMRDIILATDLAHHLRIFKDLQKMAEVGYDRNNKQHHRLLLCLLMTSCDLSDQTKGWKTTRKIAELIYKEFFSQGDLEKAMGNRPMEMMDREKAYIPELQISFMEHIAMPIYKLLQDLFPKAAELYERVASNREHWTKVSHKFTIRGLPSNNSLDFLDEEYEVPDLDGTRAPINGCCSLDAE

[9] = test system: PDE4 purified from human colon HT-29 cultured tumor cells; test: PDE4 inhibition assay; type: biochemical; conditions: HT-29 cell enzyme
[10] = test system: Colo 205; test: Growth inhibition, neutral red assay, Colo 205; type: cell-based, human; conditions: Homo sapiens, COLO 205; neutral red assay (Schmid et al.)
Experimental: (§1) Compound I's activity is not confined to activity against colon cancer cell lines or animal models of colon cancer. It has a broad range of anti-neoplastic effects in various neoplastic cell lines. Various types of human cancer cell lines were propagated under sterile conditions in RPMI 1640 medium with 10% fetal bovine serum, 2 mM L-glutamine and sodium bicarbonate. To determine growth inhibitory effects of Compound I, cells were seeded in 96-well plates at a density of 1000 cells per well. Twenty-four hours after plating, the cells were dosed with various concentrations of the free base of Compound I solubilized in DMSO (final concentration 0.1%). The effect of the drug on tumor cell growth was determined using the neutral red cytotoxicity assay following five days of continuous treatment. Neutral red is a dye that is selectively taken up by viable cells by an ATP-dependent transport mechanism.

[11] = test system: PC-3; test: Growth inhibition, neutral red assay, PC-3; type: cell-based, human; conditions: Homo sapiens, PC-3; neutral red assay (Schmid et al.); read-out: IC50 (μM), Human Prostate Carcinoma PC3
Experimental: as §1

[12] = biological target: T3, cGMP binding sites of the GST-cGB-PDE5 protein (Homo sapiens, UniProt O76074); test: cGMP binding assay with GST-cGB-PDE5 fusion protein; conditions: 3H-cGMP 2 μM
T3 construct: made in house; host or cells: E. coli BL21 (DE3)

[13] = biological target: novel cGMP-specific PDE peak B from SW480 cells (Homo sapiens); test: cGMP hydrolysis inhibition, novel PDE peak B (Section IA) from SW480; type: biochemical; conditions: Section IA Peak B, cGMP hydrolysis, 0.25 μM 3H-cGMP
Chain of novel cGMP-specific PDE peak B from SW480 cells (Homo sapiens) (O00408 2-941): as above

[14] = biological target: T4, classic PDE2 (Peak B) from SW480 (Homo sapiens, UniProt O00408); test: Inhibition of classic PDE2 Peak B isolated with ethylene glycol buffers; type: biochemical
T4 construct: endogenous in cells; host or cells: SW480 cells, non-FPLC DEAE column with 30% ethylene glycol buffers
T4 sequence (O00408 whole entry): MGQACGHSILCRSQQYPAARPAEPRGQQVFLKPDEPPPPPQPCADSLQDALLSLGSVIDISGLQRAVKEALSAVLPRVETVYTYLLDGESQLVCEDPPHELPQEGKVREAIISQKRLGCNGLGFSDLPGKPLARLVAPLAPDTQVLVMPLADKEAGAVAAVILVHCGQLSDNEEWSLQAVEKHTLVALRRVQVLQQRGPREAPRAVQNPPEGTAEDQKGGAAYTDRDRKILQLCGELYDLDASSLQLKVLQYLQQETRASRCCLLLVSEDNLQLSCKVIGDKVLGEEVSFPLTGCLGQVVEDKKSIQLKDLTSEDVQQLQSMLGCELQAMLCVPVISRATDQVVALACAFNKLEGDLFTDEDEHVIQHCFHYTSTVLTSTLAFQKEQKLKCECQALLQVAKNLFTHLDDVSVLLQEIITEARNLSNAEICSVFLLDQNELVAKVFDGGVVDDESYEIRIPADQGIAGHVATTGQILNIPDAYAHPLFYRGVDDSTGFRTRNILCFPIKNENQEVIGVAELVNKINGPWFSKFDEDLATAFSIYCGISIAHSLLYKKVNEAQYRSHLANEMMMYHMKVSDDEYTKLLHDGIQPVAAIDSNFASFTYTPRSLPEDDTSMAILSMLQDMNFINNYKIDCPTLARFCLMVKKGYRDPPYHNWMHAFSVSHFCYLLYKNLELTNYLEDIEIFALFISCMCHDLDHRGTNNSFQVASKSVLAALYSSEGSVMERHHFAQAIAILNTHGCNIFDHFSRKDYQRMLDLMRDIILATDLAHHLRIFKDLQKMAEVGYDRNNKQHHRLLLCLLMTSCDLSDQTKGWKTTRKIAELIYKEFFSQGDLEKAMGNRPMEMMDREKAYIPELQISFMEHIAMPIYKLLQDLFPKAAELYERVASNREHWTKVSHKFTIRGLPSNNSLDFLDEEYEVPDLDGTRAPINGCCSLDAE
Experimental: A second method used to isolate classic PDE2 from SW480 was done using a non-FPLC DEAE column procedure described above (see Section IA) with the modification that the buffers contained 30% ethylene glycol, 10 mM TLCK and 3.6 mM β-mercaptoethanol. The addition of these reagents to the buffers causes a shift in the elution profile (see FIG. 25) from low to high sodium acetate so that peak A moves from 40 to 150 mM, peak B from 75 to 280 mM and peak C from 200 to 500 mM Na acetate (see FIG. 25).

[15] = test system: SW-480 colon adenocarcinoma cells; test: Apoptosis fold induction protocol (DNA fragmentation ELISA); conditions: cell line not given
[16] = test system: peak B's from SW480, HTB-26, and LnCAP; test: cGMP PDE activity of peak B's isolated by FPLC; type: biochemical; conditions: 100 nM inhibitor
Experimental: The novel Peak B was also isolated from two other neoplastic cell lines, a breast cancer cell line, HTB-26 and a prostate cancer cell line, LnCAP by a procedure similar to the one above used to isolate it from SW480. The protocol was modified in several respects. To provide even greater reproducibility to allow comparison of different cell lines, a Pharmacia AKTA FPLC was used to control sample loading and elution on an 18 mL DEAE TrisAcryl M column. SW840 was run by this same procedure multiple times to provide a reference of peak B. 200-400 million cells of SW480 were used for the profiles. 70 million cells of LnCAP were used for a profile (see FIGS. 22 and 23), and in a separate experiment 32 million cells of HTB-26 were used for a profile (see FIGS. 20 and 21). After re-suspending cells in homogenization buffer, samples were manually homogenized. FPLC buffer A was 8 mM TRIS-acetate, 5 mM Mg acetate, 0.1 mM EDTA, pH 7.5 and buffer B was 8 mM TRIS-acetate, 5 mM Mg acetate, 0.1 mM EDTA, 1 M Na acetate, pH 7.5. Supernatants were loaded onto the column at 1 mL per minute, followed by a wash with 60 mL buffer A at 1 mL per minute. A gradient was run from 0-15% buffer B in 60 mL, 15-50% buffer B in 60 mL, and 50-100% buffer B in 16 mL. During the gradient 1.5 mL fractions were collected.

COX Inhibition [1] | inhibition at 100 µM [1] | IC50 [2] | IC50 [9] | SMILES | cGMP PDE inhibitory activity, % Inhibition at 10 μM [2] | PDE Inhibition [2] | Growth-inhibitory activity, % Inhibition at 100 μM [4] | COX-I inhibition (FIG. 5) [1] | competition with cGMP in binding of GST-cGB-PDE5 [12] | other results
− |  |  |  | CCN(CC)CCSC12CC(=O)OC1(C)/C(=C/c1ccc(S(C)(=O)=O)cc1)c1ccc(F)cc12 (racemic) [A, rac-threo-(E)-1-(N,N′-diethylaminoethanethio)-1-(butan-1′,4′-olido)-[3′,4′: 1,2]-6-fluoro-2-methyl-3-(p-methylsulfonylbenzylidene)-indan] | <25% | − | 68% |  |  | Cyclooxygenase inhibitory activity, % Inhibition at 100 μM ([1]; 100 μM): <25%; Apoptosis ([3]; qualitative activity profile): ++; Growth Inhibition ([4]; qualitative activity profile): +++; Mammary Gland Organ Culture [5]: ++; Apoptosis-inducing activity, Fold induction at 100 μM [6]: <2.0 fold
− | < 25% | 0.08 µM | > 25 µM | COc1cc(/C=C2/C(C)=C(CC(=O)NCc3ccccc3)c3cc(F)ccc32)cc(OC)c1OC [Compound E, (Z)-5-Fluoro-2-methyl-1-(3,4,5-trimethoxybenzylidene)-3-indenylacetamide, N-benzyl] | 75% | ++++ |  | neither test compound B and E significantly inhibit COX-I | do not bind to the cGMP binding sites of PDE5 | Ratio (IC50 Peak A/Peak B) [7]: 1.0; competitive (with cGMP) binding to PDE 5 (peak A) [7]: does competitively (with cGMP) bind; competitive (with cGMP) binding to PDE peak B [8]: competitively (with cGMP) binds; IC50 [10]: 1.62 µM; IC50 [11]: 0.9 µM
 |  |  |  | CCCCCC[C@@H]([C@@H](C)O)n1cnc2c(N)ncnc21 (racemic) [EHNA] |  |  |  |  |  | IC50 ([7]; cGMP hydrolysis, 0.25 μM 3H-cGMP): > 100 µM; IC50 [13]: 3.7 µM; IC50 ([14]; 2.0 μM cAMP substrate, read-out: IC50, cAMP PDE activity in Peak B): 3.8 µM; IC50 ([14]; read-out: IC50, cAMP PDE activity in Peak B with rolipram, 2.0 μM cAMP substrate, addition of 10 μM rolipram): 2.5 µM; IC50 ([14]; read-out: IC50, cGMP PDE activity in Peak B, 2 μM cGMP substrate): 1.6 µM; Apoptosis-inducing activity, Fold induction at 100 μM ([15]; 100 μM): <2.0 fold
− | < 25% | 18 µM | 58 µM | COc1cc(C=C2C(C)=C(CC(=O)O)c3cc(F)ccc32)cc(OC)c1OC [Compound B, (Z)-5-Fluoro-2-methyl-1-(3,4,5-trimethoxybenzylidene)-3-acetic acid] | <25% | +++ |  | neither test compound B and E significantly inhibit COX-I | do not bind to the cGMP binding sites of PDE5 | EC50 ([3]; Homo sapiens, HT-29, 48 hours): ~175 µM; fold induction at 100 µM ([15]; Homo sapiens, SW480, read-out: Apoptosis-inducing activity, Fold induction at 100 μM, 100 μM): > 2
 |  |  |  | O=C(O)C1CCN(c2nc(NCc3ccc4c(c3)OCO4)c3cc(Cl)ccc3n2)CC1 [Compound E4021] |  |  | <50% |  | do not bind to the cGMP binding sites of PDE5 | sensitivity of peak B's cGMP PDE activity [16]: resistant; IC50 ([4]; HT-29 treated for 6 days, SRB assay, read-out: Growth inhibition (IC50)): > 100 µM
